Reference: US5654299A, “Aryl substituted heterocycles” (Zeneca Limited, priority 1993, dated 1997)
“And” between values parts separate entries of the source, which are not always exact repeats. Equal values may be shown once. Where a name gives a salt, the structure may show the parent alone. Read-outs that look alike come from different tables or passages of the source.

Assays:
[1] = target: T1, guinea pig trachea (Cavia porcellus, UniProt Q64077); experiment: Guinea Pig Trachea Assay (Test B), antagonism of NKA or [β-ala^8]-NKA(4-10); type: cell-based; details: for Kb: guinea pig trachea, apparent dissociation constant, -log molar KB
T1 sequence (Q64077 1-402): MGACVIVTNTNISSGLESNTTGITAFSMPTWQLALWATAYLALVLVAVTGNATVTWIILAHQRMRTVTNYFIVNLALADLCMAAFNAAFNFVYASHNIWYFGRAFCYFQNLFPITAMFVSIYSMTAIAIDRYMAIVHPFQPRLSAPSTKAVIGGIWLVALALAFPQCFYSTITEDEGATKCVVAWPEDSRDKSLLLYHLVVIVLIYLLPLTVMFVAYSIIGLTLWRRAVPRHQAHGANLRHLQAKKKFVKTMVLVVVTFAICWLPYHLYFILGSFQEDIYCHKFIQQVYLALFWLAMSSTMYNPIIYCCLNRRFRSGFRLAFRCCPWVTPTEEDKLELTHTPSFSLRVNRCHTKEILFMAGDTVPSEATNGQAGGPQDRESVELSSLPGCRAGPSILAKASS

[2] = target: T2, human NK2 receptor (Homo sapiens, UniProt P21452); experiment: Neurokinin A (NKA) Receptor-binding Assay (Test A), 3H-NKA binding to MEL cell membranes (MELM)
T2 sequence (P21452 1-398): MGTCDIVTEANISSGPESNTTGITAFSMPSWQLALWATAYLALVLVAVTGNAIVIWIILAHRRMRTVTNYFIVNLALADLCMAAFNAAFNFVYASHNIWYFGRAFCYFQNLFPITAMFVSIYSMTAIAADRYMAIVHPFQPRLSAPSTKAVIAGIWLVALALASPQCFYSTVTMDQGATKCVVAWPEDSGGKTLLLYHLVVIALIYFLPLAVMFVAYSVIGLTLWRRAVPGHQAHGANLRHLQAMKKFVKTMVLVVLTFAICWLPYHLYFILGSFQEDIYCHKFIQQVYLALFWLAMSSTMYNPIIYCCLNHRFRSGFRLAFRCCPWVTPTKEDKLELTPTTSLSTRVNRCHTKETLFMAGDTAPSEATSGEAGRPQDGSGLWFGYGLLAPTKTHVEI

[3] = test system: NK2 receptor; experiment: Guinea Pig Labored Abdominal Breathing (Dyspnea) Assay (Test C), [β-ala^8]-NKA(4-10) aerosol; type: in vivo; details: 5 μmol/kg p.o., 120 min prior
Protocol: Guinea Pig Labored Abdominal Breathing (Dyspnea) Assay (Test C)
Using the clear plastic chamber described previously by Snyder et al. to secure guinea pigs for a head-only aerosol exposure to bronchoconstrictor agonists, agonist is administered by aerosol to six conscious guinea pigs simultaneously during each maneuver. The tachykinin NK2-selective agonist, [β-ala^8 ]-NKA(4-10), 3×10^-5 M, is aerosolized from a Devilhiss Model 25 ultrasonic nebulizer into an air stream entering the chamber at a rate of 2 L/minute.
Guinea pigs (275-400 g) are fasted for approximately 16 hours prior to experimentation. Compounds to be evaluated for blockade of effects of [β-ala^8 ]-NKA(4-10) or their vehicle (10% PEG400 in saline) are administered p.o. or i.v. at various times before aerosol agonist challenge. All animals are pretreated with atropine (10 mg/kg, i.p., 45 minutes pretreatment) indomethacin (10 mg/kg, i.p., 30 minutes pretreatment), propranolol (5 mg/kg, i.p., 30 minutes pretreatment), and thiorphan (1 mg/ml aerosol for 5 minutes, 15 minutes pretreatment).
Aerosol challenge with the agonist produces an initial increase in respiratory rate followed by a decrease with early signs of minor involvement of the abdominal muscles. The respiratory rate decreases further and the breathing becomes more labored with greater involvement of the abdominal muscles as exposure continues. The distinctly recognizable end point is the point where the breathing pattern of the guinea pig is consistently slow, deep, and deliberate, showing marked involvement of the abdominal muscles. Time, in seconds, from the onset of aerosol challenge to this end point is determined for each animal by using a stopwatch. […] Antagonists result in an increase in the time to reach the end point. Animals receive the aerosol administration of agonist for a maximum time of 780 seconds.
Differences between drug treated groups and corresponding vehicle treated control groups are compared using Student's t-test for unpaired observations.

[4] = test system: NKA receptor from rat duodenum membranes; details: Edmonds-Alt (1993), cited from earlier work; for Ki: rat duodenum membranes, read-out: inhibition constant (Ki), [125I]-NKA binding
[5] = test system: neurokinin receptors; details: EPA 559538; cited from earlier work
[6] = read-out: pKB (Test B) (converted)

Kb [1, 6] | Ki ([2]; read-out: Ki (Test A)) [nM] | SMILES | number fully protected/total number tested (Test C) [3] | percent protection (Test C) [3] [%] | also measured
3.16 nM | 2.8 | CN(CC(CCN1CCC(c2ccccc2O)CC1)c1ccc(Cl)c(Cl)c1)C(=O)c1ccccc1 (centres unmarked) [Example 6, N-[2-(3,4-Dichlorophenyl)-4-[4-(2-hydroxyphenyl)piperidino]butyl]-N-methylbenzamide hydrochloride] | – | – | –
0.316 nM | 0.3 | CN(C[C@@H](CCN1CCC(c2ccccc2[S+](C)[O-])CC1)c1ccc(Cl)c(Cl)c1)C(=O)c1ccccc1.Cl (stereo partly drawn) [Example 14, (S)-N-[2-(3,4-Dichlorophenyl)-4-[4-(2-methylsulfinylphenyl)piperidino]butyl]-N-methylbenzamide hydrochloride] | 8/8 | 100 | –
2.51 nM | 3 | CSc1ccccc1C1CCN(CCC(CN(C)C(=O)c2ccccc2)c2ccc(Cl)c(Cl)c2)CC1.Cl (centres unmarked) [Example 13, N-[2-(3,4-Dichlorophenyl)-4-[4-(2-methylthiophenyl)-piperidino]butyl]-N-methylbenzamide hydrochloride] | 3/6 | 78 | –
6.31 nM | 0.6 | CN(C[C@@H](CCN1CCC(c2ccc([S+](C)[O-])cc2)CC1)c1ccc(Cl)c(Cl)c1)C(=O)c1ccccc1.Cl (stereo partly drawn) [Example 16, (S)-N-[2-(3,4-Dichlorophenyl)-4-[4-(4-methylsulfinylphenyl)piperidino]butyl]-N-methylbenzamide hydrochloride] | 5/6 | 88 | –
2.51 nM | 2 | CN(C[C@@H](CCN1CCC(c2cccnc2)CC1)c1ccc(Cl)c(Cl)c1)C(=O)c1ccccc1.Cl [Example 9, (S)-N-[2-(3,4-Dichlorophenyl)-4-[4-(3-pyridyl)piperidino]butyl]-N-methylbenzamide hydrochloride] | 5/6 | 90 | –
79.4 nM | 21.1 | Cc1nnc(C2CCN(CCC(CN(C)C(=O)c3ccccc3)c3ccc(Cl)c(Cl)c3)CC2)o1 (centres unmarked) [Example 7, N-[2-(3,4-Dichlorophenyl)-4-[4-(5-methyl-1,3,4-oxadiazol-2-yl)piperidino]butyl]-N-methylbenzamide hydrochloride] | – | – | –
– | – | CC(C)Oc1cccc(CC(=O)N(C)CC(CCN2CCC(c3ccccc3)CC2)c2ccc(Cl)c(Cl)c2)c1 (centres unmarked) [N-[2-(3,4-dichlorophenyl)-4-(4-phenylpiperidino)butyl]-N-methyl-3-isopropoxyphenylacetamide] | – | – | affinity for neurokinin receptors [5]: high affinity
– | – | CC(=O)NC1(c2ccccc2)CCN(CC[C@H](CN(C)C(=O)c2ccccc2)c2ccc(Cl)c(Cl)c2)CC1 [SR 48968, N-[4-(4-acetylamino-4-phenylpiperidino)-2-(3,4-dichlorophenyl)butyl]-N-methylbenzamide, reference compound] | – | – | Ki [4]: 0.5 nM
10 nM | 13 | CN(CC(CCN1CC[C@H](c2ccccc2)[C@@H](O)C1)c1ccc(Cl)c(Cl)c1)C(=O)c1ccccc1 (relative stereo) [Example 10, N-[2-(3,4-Dichlorophenyl)-4-[(3R*,4R*)-3-hydroxy-4-phenylpiperidino]butyl-N-methylbenzamide hydrochloride] | – | – | –
5.01 nM | 9 | COc1ccccc1C1CCN(CCC(CN(C)C(=O)c2ccccc2)c2ccc(Cl)c(Cl)c2)CC1 (centres unmarked) [Example 2, N-[2-(3,4-Dichlorophenyl)-4-[4-(2-methoxyphenyl)piperidino]butyl]-N-methylbenzamide hydrochloride] | – | – | –
2 nM | 2 | CSc1ccc(C2CCN(CC[C@H](CN(C)C(=O)c3ccccc3)c3ccc(Cl)c(Cl)c3)CC2)cc1.Cl [Example 15, (S)-N-[2-(3,4-Dichlorophenyl)-4-[4-(4-methylthiophenyl)piperidino]butyl]-N-methylbenzamide hydrochloride] | 6/6 | 100 | –
12.6 nM | 2 | CN(C[C@@H](CCN1CCC(c2ccccn2)CC1)c1ccc(Cl)c(Cl)c1)C(=O)c1ccccc1.Cl [Example 27, (S)-N-[2-(3,4-Dichlorophenyl)-4-[4-(2-pyridyl)piperidino]butyl]-N-methylbenzamide hydrochloride] | 2/6 | 54 | –
– | – | CN(CC(CCN1CCC2(CC1)OC(=O)c1ccccc12)c1ccc(Cl)c(Cl)c1)C(=O)c1ccccc1 (centres unmarked) [Example 24, N-[2-(3,4-Dichlorophenyl)-4-(3-oxospiro[isobenzofuran-1(3H),4'-piperidin]-1'-yl)butyl]-N-methylbenzamide hydrochloride] | – | – | Kb ([1]; pKB (Test B)): 6.31 nM; Ki [2]: 3.5 nM

SMILES | Kb [1, 6] | Ki ([2]; read-out: Ki (Test A)) [nM] | number fully protected/total number tested (Test C) [3] | percent protection (Test C) [3] [%] | also measured
CN(CC(CCN1CCC(c2ccccc2)CC1)c1ccc(Cl)c(Cl)c1)C(=O)c1ccccc1.Cl (centres unmarked) [Example 1, N-[2-(3,4-Dichlorophenyl)-4-(4-phenylpiperidino)butyl]-N-methylbenzamide hydrochloride] | 10 nM and 6.31 nM | 2.6 | 0/6 | 17 | NK2 antagonism in words, Test B ([1]; functional assay Test B): potent NK2 antagonist; biological activity of the benzamide in words [4]: lack of biological activity; Ki [4]: > 100 nM; NK2 antagonism in words, Test A ([2]; in vitro screen Test A): potent NK2 antagonist
